The text below walks through data of ChEMBL document CHEMBL2321780, “Fluorinated quinazolinones as potential radiotracers for imaging kinesin spindle protein expression” (2013).

For experiment [1], the target named is T1, Kinesin-1 heavy chain (Homo sapiens) (UniProt P33176).
T1 sequence (whole entry): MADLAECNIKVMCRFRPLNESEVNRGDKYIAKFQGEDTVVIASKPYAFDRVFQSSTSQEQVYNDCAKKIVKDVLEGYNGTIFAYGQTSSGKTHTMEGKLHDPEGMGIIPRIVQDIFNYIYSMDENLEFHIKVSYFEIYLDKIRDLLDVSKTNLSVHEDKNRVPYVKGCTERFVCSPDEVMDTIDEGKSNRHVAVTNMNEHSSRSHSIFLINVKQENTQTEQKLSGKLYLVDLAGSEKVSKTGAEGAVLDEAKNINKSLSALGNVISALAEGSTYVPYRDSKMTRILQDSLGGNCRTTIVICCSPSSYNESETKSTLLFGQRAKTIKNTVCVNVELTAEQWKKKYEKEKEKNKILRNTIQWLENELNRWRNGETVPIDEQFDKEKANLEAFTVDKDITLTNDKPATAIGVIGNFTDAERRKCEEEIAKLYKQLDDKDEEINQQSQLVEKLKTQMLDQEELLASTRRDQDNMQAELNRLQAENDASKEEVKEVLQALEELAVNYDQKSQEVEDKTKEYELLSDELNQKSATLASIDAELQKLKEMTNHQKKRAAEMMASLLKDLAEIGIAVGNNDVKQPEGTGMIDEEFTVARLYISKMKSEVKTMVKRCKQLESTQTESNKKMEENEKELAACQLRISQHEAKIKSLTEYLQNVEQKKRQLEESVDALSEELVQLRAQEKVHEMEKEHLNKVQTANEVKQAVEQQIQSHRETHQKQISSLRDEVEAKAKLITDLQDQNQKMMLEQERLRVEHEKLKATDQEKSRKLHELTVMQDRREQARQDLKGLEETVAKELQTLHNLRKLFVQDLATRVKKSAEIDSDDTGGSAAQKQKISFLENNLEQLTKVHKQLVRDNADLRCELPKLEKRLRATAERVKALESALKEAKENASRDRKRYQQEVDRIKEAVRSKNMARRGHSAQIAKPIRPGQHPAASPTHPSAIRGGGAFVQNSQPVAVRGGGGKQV
Nature of the experiment: Inhibition of KNH (unknown origin)-mediated ATP hydrolysis assessed as residual activity at 1 uM after 10 to 20 mins by spectrophotometric analysis.

The target in experiment [2] is Centromere-associated protein E (Homo sapiens) (UniProt Q02224). Nature of the experiment: Inhibition of CENP-E (unknown origin)-mediated ATP hydrolysis assessed as residual activity at 1 uM after 10 to 20 mins by spectrophotometric analysis.
Experiment [3] addresses T2, Kinesin-like protein KIF2C (Homo sapiens) (UniProt Q99661).
T2 sequence (whole entry): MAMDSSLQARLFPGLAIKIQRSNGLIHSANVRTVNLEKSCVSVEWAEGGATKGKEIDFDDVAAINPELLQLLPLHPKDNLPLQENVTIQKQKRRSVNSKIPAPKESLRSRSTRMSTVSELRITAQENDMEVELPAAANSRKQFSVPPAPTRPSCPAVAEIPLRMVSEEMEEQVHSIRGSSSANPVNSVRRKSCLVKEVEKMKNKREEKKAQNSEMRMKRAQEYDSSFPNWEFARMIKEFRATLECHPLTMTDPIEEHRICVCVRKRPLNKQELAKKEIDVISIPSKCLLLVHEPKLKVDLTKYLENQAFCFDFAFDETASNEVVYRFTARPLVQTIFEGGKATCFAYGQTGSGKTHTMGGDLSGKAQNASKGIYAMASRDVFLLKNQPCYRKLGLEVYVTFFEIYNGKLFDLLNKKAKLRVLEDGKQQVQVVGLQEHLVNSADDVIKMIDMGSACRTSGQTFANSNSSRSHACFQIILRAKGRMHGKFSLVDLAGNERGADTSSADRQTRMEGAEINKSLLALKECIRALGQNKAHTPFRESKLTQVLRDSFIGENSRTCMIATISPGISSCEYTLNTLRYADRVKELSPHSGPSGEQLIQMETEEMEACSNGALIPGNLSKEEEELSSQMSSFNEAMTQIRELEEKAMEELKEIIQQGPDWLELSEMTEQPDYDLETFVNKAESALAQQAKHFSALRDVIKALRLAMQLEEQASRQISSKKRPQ
Nature of the experiment: Inhibition of MCAK (unknown origin)-mediated ATP hydrolysis assessed as residual activity at 1 uM after 10 to 20 mins by spectrophotometric analysis.

Experiment [4] addresses T3, Kinesin-like protein KIFC3 (Homo sapiens) (UniProt Q9BVG8).
T3 sequence (whole entry): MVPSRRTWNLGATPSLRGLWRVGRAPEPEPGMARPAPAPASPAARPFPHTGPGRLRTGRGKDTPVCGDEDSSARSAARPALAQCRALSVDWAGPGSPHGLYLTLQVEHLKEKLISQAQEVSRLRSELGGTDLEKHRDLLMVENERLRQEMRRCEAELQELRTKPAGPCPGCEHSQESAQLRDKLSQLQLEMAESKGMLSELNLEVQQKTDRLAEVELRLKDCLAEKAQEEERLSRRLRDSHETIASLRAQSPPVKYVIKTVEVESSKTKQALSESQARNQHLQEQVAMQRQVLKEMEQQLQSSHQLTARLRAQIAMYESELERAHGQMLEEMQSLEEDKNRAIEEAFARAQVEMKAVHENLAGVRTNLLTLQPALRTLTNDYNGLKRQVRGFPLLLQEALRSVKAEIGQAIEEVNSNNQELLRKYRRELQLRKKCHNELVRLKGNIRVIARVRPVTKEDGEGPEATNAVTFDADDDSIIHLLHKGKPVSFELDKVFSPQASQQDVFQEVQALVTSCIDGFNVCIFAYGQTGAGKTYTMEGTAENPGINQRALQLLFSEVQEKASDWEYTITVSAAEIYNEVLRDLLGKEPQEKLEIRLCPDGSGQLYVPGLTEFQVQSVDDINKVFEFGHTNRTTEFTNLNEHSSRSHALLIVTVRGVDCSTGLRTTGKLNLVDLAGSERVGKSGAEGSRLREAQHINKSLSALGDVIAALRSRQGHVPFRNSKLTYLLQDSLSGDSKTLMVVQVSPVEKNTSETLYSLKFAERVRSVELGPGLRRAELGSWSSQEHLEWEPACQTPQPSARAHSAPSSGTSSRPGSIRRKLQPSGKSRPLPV
As to the kind of experiment: Inhibition of KIFC3 (unknown origin)-mediated ATP hydrolysis assessed as residual activity at 1 uM after 10 to 20 mins by spectrophotometric analysis.

A further experiment concerns PC-3. As to the kind of experiment: Nonspecific cytotoxicity against human PC3 cells after 44 hrs by MTT assay. Particulars: PC-3, 44 h. It is filed as functional. On the technique in general: Tetrazolium dyes change colour on reduction, which living cells bring about.
Another experiment has as its system SK-OV-3. As to the kind of experiment: Nonspecific cytotoxicity against human SKOV3 cells after 44 hrs by MTT assay. The class given is functional. Particulars: SK-OV-3, 44 h.

Centromere-associated protein E (Homo sapiens), sequence (Q02224 whole entry): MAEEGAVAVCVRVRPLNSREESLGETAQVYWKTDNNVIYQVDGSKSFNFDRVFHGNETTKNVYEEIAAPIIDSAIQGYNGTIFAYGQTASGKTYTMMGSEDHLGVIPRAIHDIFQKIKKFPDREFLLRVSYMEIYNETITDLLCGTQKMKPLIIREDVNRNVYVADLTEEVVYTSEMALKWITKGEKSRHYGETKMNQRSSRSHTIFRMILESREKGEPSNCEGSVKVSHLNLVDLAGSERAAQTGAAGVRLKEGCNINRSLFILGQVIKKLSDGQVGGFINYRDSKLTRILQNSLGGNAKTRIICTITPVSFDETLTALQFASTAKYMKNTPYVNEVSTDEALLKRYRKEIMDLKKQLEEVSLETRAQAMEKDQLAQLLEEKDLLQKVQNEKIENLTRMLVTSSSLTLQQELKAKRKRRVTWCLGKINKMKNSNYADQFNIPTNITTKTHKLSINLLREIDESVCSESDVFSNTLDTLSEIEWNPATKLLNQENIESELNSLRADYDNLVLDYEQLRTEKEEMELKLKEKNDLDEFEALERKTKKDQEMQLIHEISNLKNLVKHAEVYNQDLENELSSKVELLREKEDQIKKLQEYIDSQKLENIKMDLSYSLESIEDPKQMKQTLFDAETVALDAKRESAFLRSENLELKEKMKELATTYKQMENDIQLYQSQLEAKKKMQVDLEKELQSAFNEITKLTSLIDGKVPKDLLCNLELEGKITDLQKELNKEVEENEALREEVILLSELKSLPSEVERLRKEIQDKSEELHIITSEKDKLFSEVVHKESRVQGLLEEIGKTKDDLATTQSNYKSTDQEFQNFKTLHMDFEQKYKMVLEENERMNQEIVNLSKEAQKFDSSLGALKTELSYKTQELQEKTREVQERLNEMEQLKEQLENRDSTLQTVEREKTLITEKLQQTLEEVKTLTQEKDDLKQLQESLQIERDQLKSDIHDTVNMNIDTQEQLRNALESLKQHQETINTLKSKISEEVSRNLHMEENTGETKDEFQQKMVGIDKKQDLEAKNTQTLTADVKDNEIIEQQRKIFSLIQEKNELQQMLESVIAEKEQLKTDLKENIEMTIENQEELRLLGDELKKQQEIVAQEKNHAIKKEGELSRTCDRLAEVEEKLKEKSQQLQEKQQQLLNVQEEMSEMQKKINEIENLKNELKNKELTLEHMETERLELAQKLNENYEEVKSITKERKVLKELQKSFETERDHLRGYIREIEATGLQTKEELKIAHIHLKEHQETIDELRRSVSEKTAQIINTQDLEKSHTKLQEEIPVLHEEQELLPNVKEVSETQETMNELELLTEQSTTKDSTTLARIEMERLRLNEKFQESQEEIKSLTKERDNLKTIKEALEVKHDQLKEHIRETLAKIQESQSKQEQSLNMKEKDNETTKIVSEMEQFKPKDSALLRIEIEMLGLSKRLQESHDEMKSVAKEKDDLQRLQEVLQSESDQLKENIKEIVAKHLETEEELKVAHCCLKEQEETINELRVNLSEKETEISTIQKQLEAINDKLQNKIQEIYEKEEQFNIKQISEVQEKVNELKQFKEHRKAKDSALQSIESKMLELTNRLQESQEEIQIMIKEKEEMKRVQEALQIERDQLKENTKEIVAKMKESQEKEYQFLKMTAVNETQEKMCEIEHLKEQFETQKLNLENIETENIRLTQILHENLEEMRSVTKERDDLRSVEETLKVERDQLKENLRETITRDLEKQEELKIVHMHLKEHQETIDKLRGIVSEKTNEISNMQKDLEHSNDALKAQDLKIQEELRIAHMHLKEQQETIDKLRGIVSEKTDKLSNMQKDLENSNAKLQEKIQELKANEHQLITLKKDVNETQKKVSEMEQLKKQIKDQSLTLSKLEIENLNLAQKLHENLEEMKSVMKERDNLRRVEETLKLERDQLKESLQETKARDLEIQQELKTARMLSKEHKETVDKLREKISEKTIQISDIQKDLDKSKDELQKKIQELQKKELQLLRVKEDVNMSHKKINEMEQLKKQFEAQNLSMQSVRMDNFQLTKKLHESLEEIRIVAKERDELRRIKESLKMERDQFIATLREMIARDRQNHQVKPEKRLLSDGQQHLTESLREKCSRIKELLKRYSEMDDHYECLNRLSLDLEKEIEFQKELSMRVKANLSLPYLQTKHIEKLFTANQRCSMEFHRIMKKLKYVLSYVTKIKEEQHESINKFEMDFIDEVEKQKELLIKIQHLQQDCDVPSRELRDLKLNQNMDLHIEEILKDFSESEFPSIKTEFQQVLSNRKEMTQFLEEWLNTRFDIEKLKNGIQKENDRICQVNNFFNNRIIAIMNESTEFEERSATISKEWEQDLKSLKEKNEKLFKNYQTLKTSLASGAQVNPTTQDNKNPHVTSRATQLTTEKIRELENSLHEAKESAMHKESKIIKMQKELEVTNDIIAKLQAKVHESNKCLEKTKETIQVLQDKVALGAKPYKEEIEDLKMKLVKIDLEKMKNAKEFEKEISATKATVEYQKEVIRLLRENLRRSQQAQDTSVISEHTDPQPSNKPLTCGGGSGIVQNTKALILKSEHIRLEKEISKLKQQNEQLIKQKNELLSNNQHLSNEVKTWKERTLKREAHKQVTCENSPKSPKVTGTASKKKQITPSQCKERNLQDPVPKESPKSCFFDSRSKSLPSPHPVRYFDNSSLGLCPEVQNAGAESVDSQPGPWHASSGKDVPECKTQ

Take `Cc1ccc(C(=O)N(CCCN)[C@H](c2nc3cc(Cl)ccc3c(=O)n2Cc2ccccc2)C(C)C)cc1`: the Activity in experiment [1] was 96.8%; in experiment [2], 99.1%; in experiment [3] it was 99.2%; in experiment [4] it was 97.9%.

As for `CC(C)[C@@H](c1nc2cc(Cl)ccc2c(=O)n1Cc1ccccc1)N(CCCN)C(=O)c1ccccc1F`, the figures for the GI50 in the experiment with PC-3 and in the experiment on SK-OV-3 were 0.16 µM and 0.85 µM, respectively. Besides, the Activity in experiment [1] was determined as 97.9%; in experiment [2], 97.9%; in experiment [3], 98.2%; in experiment [4], 98.8%.

As to `CC(C)[C@H](c1nc2cc(Cl)ccc2c(=O)n1Cc1ccccc1)N(CCCN)C(=O)c1ccccc1F`, the results for the GI50 in the experiment with PC-3 and in the experiment with SK-OV-3 were 4.6 µM and 5.35 µM, respectively. The Activity in experiment [1] stood at 97.2%; in experiment [2] it was 99.1%; in experiment [3] it was 98.7%; in experiment [4], 99.4%.

As for `CC(C)[C@@H](c1nc2cc(Cl)ccc2c(=O)n1Cc1ccccc1)N(CCCN)C(=O)c1cccc(F)c1`, the GI50 (as a rule, the concentration at which growth is held to half of that of the control) with PC-3 came out at 1.8 µM; in the experiment on SK-OV-3, 1.1 µM. For the same molecule, the Activity turned out to be 98.9% in experiment [1], 100% in experiment [2], 98.6% in experiment [3] and 98.9% in experiment [4].

Regarding `CC(C)[C@@H](c1nc2cc(Cl)ccc2c(=O)n1Cc1ccccc1)N(CCCN)C(=O)c1ccc(F)cc1`, the GI50 worked out at 1.3 µM with PC-3 and 0.5 µM with SK-OV-3. The Activity in experiment [1] is 99.2%; in experiment [2] it was 97.4%; in experiment [3], 98.9%; in experiment [4] it was 98.7%.

As to `CC(C)[C@H](c1nc2cc(Cl)ccc2c(=O)n1Cc1ccccc1)N(CCCN)C(=O)c1ccc(F)cc1`, the GI50 worked out at 5.1 µM with PC-3 and 15.4 µM with SK-OV-3. Also, the Activity in experiment [1] amounted to 97.1%; in experiment [2] it was 99.8%; in experiment [3] it was 99.2%; in experiment [4] it was 101%.

With `Cc1ccc(C(=O)N(CCCN)[C@@H](c2nc3cc(Cl)ccc3c(=O)n2Cc2ccccc2)C(C)C)cc1` [ISPINESIB], the Activity in experiment [1] was found to be 102%; in experiment [2], 98%; in experiment [3], 96.7%; in experiment [4], 97.3%.

For the molecule `CC(C)C(c1nc2cc(Cl)ccc2c(=O)n1Cc1ccccc1)N(CCCN)C(=O)c1cccc(F)c1` (racemic), the GI50 was found to be 7.6 µM in the experiment on PC-3 and 5.7 µM in the experiment on SK-OV-3. The Activity in experiment [1] is 99.1%; in experiment [2], 97.4%; in experiment [3], 96.4%; in experiment [4], 99.4%.
